Test results as given in patent publication US10851067B2, “Kv7 channel activators compositions and methods of use” (Knopp Biosciences LLC, priority 2018, dated 2020).

These compounds were tested against Kv7.2/7.3 (Homo sapiens, UniProt O43525+O43526) (assay: Kv7.2/7.3 Activation Assay, QPatch single concentration screen). Details: Kv7.2/Kv7.3 co-expressing HEK cells, compound concentration 3 μM, steady-state current at end of 2 s pulse to −30 mV.
Assay type: cell-based
Parameters: host or cells: HEK cells, tetracycline-inducible expression; key: 1.2-2.9 (+); 3-3.9 (++); >4 (+++) fold increase over baseline; O represents open channel at holding potential
Protocol: Kv7.2/7.3 Activation Assay
The ability of compounds to potentiate K-currents in Kv7.2/7.3 containing HEK cells was assessed using planar patch-clamp on the QPatch automated screening platform.
The hKv7.2/7.3 cell line was obtained from Chantest (Cleveland, Ohio 44128) cat. #CT6147. These HEK cells will express the Kv7.2/7.3 ion channels when induced.
Cells were maintained in a media containing DMEM/F12; 50/50 (GIBCO cat. #11330), 10% Fetal Bovine Serum (FBS) (GIBCO cat. #26140), 100 units/mL Penicillin-Streptomycin (GIBCO cat. #15140), 0.005 mg/mL Blasticidin (INVIVOGEN cat. #ant-b1-1), 0.5 mg/mL Geneticin (GIBCO cat. #10131), 0.1 mg/mL Zeocin (GIBCO cat. #R25001). Cells used in the electrophysiology assay were maintained in a media without Blasticidin, Geneticin and Zeocin for 2 days and channel expression was induced by adding tetracycline (BIOLINE cat. #BIO-87030) at a final concentration of 1 mg/mL. Cells were grown in T-175 flask to ˜75% confluency. Currents were recorded 24 hours after channel induction.
Test compounds were prepared by performing serial dilutions on a Biomek NX^P (BECKMAN COULTER). Final dilutions were made in external recording solution with a final DMSO concentration of 0.1% DMSO. For single concentration screens each plate had 10 μM retigabine as a positive control and 0.1% DMSO as a negative control.
On the day of the experiment cells were washed with Hank's Balanced Salt Solution (HBBS) (GIBCO cat. #14175) and harvested with Tryple (GIBCO cat. #12604). Cells were then centrifuged at 2000 rpm for 5 minutes and resuspended in CHO-S-SFM (GIBCO cat. #12052) at ˜3×10^6 cells/mL. Cells were stirred for 30 minutes before experiments were started. External recording solution contained (in mM): NaCl (145), KCl (4), CaCl2 (2), MgCl2 (1), HEPES (10) and Glucose (10); pH was adjusted to 7.4 with NaOH and the osmolarity was adjusted to 300-305 mOsM with sucrose if necessary. Internal solution contained (in mM): KCl (125), KF (10), EGTA (5), Na2ATP (5), MgCl2 (3.2), HEPES (5); pH was adjusted to 7.2 with KOH and the osmolarity was adjusted to 298-302 mOsM with sucrose.
Potassium channel activity was measured on the QPatch HTX (Sophion Bioscience) using QPlates with 48-wells/plate. Each cell was taken as an independent experiment and only one compound was tested per well. Potassium channel activity was elicited by holding at −80 mV and stepping to −30 mV for 2 s followed by a 100 ms pulse to −120 mV.
Single Concentration Screen:
Baseline conditions were obtained by recording 5 sweeps in the external solution only, this was repeated for three applications of the external solution. The effect of test compounds on elicited current was then assessed by recording 5 sweeps in the presence of a 3 μM compound solution. The steady-state current at the end of the 2 s pulse to −30 mV was measured to determine the fold increase from baseline.

Compound	Kv7.2/7.3 Activity: increase over baseline in current
CC(=O)c1c(F)ccc2nc(NC(=O)CC(C)(O)c3ccccc3)n(C3(C)CCC3)c12 (single isomer, unassigned) [Example 360, N-(7-acetyl-6-fluoro-1-(1-methylcyclobutyl)-1H-benzo[d]imidazol-2-yl)-3-hydroxy-3-phenylbutanamide]	O
CC(C)(O)c1ccc2nc(NC(=O)CC(C)(C)C(F)(F)F)n(C34CC(C3)C4)c2c1 [Example 404, N-(1-(bicyclo[1.1.1]pentan-1-yl)-6-(2-hydroxypropan-2-yl)-1H-benzo[d]imidazol-2-yl)-4,4,4-trifluoro-3,3-dimethylbutanamide]	+ (1.2-2.9 (+))
CC(O)(CC(=O)Nc1nc2ccc(OC(F)F)cc2n1C1(C)CCC1)c1ccccc1 (single isomer, unassigned) [Example 463, N-(6-(difluoromethoxy)-1-(1 - methylcyclobutyl)-1H-benzo[d]imidazol-2-yl)-3-hydroxy-3-phenylbutanamide]	+ (1.2-2.9 (+))
CC(O)(CC(=O)Nc1nc2ccc(C#N)cc2n1C1(C)CCC1)c1ccc(F)cc1F (single isomer, unassigned) [Example 460, N-(6-cyano-1-(1-methylcyclobutyl)-1H-benzo[d]imidazol-2-yl)-3-(2,4-difluorophenyl)-3-hydroxybutanamide]	++ (3-3.9 (++))
COCc1c(Cl)ccc2nc(NC(=O)CC(C)(C)C)n(C3CCC3)c12 [Example 399, N-(6-chloro-1-cyclobutyl-7-(methoxymethyl)-1H-benzo[d]imidazol-2-yl)-3,3-dimethylbutanamide]	+++ (>4 (+++) fold increase over baseline)
CC(C)(C)CC(=O)Nc1nc2cc(F)ccc2n1C1CCC1 [Example 449, N-(1-cyclobutyl-5-fluoro-1H-benzo[d]imidazol-2-yl)-3,3-dimethylbutanamide]	++ (3-3.9 (++))
CC(C)(CC(=O)Nc1nc2c(F)cc(OC(F)F)cc2n1C1(C)CCC1)C1CC1 [Example 338, 3-cyclopropyl-N-(6-(difluoromethoxy)-4-fluoro-1-(1-methylcyclobutyl)-1H-benzo[d]imidazol-2-yl)-3-methylbutanamide]	+++ (>4 (+++) fold increase over baseline)
CC1(n2c(NC(=O)CC(C)(C)C(F)(F)F)nc3ccc(OC(F)F)cc32)CCC1 [Example 366, N-(6-(difluoromethoxy)-1-(1-methylcyclobutyl)-1H-benzo[d]imidazol-2-yl)-4,4,4-trifluoro-3,3-dimethylbutanamide]	+ (1.2-2.9 (+))
CC(C)(C)CC(=O)Nc1nc2c(C(F)(F)F)cc(Br)cc2n1C1CCC1 [Example 477, N-(6-bromo-1-cyclobutyl-4-(trifluoromethyl)-1H-benzo[d]imidazol-2-yl)-3,3-dimethylbutanamide]	+++ (>4 (+++) fold increase over baseline)
COc1ccc2nc(NC(=O)CC(C)(C)C)n(C3CCC3)c2c1F [Example 429, N-(1-cyclobutyl-7-fluoro-6-methoxy-1H-benzo[d]imidazol-2-yl)-3,3-dimethylbutanamide]	+++ (>4 (+++) fold increase over baseline)
COC(=O)Cc1c(F)ccc2nc(NC(=O)CC(C)(C)C)n(C3CCC3)c12 [Example 447, methyl 2-(1-cyclobutyl-2-(3,3-dimethylbutanamido)-6-fluoro-1H-benzo[d]imidazol-7-yl)acetate]	+++ (>4 (+++) fold increase over baseline)
COCc1c(F)ccc2nc(NC(=O)CC(C)(C)C)n(C3CCC3)c12 [Example 394, N-(1-cyclobutyl-6-fluoro-7-(methoxymethyl)-1H-benzo[d]imidazol-2-yl)-3,3-dimethylbutanamide]	O
CC(C)(CC(=O)Nc1nc2cc(F)c(OC(F)F)cc2n1C(C)(C)C)C1CC1 [Example 368, N-(1-(tert-butyl)-6-(difluoromethoxy)-5-fluoro-1H-benzo[d]imidazol-2-yl)-3-cyclopropyl-3-methylbutanamide]	+ (1.2-2.9 (+))
CC1(n2c(NC(=O)CC(O)(c3ccccc3)C(F)(F)F)nc3c(F)cc(OC(F)F)cc32)CCC1 (centres unmarked) [Example 409, N-(6-(difluoromethoxy)-4-fluoro-1-(1-methylcyclobutyl)-1H-benzo[d]imidazol-2-yl)-4,4,4-trifluoro-3-hydroxy-3-phenylbutanamide]	+ (1.2-2.9 (+))
C[C@@H](CC(=O)Nc1nc2c(F)cc(C(C)(C)O)cc2n1C1CCC1)c1ccccc1 [Example 410, (S)-N-(1-cyclobutyl-4-fluoro-6-(2-hydroxypropan-2-yl)-1H-benzo[d]imidazol-2-yl)-3-phenylbutanamide]	O
CC(O)(CC(=O)Nc1nc2ccc(C#N)cc2n1C1(C)CCC1)c1c(F)cccc1F (single isomer, unassigned) [Example 467, N-(6-cyano-1-(1-methylcyclobutyl)-1H-benzo[d]imidazol-2-yl)-3-(2,6-difluorophenyl)-3-hydroxybutanamide]	+ (1.2-2.9 (+))
COc1cccc2nc(NC(=O)CC(C)(O)c3ccccc3)n(C3CCC3)c12 (single isomer, unassigned) [Example 442, N-(1-cyclobutyl-7-methoxy-1H-benzo[d]imidazol-2-yl)-3-hydroxy-3-phenylbutanamide]	+ (1.2-2.9 (+))
CC1(n2c(NC(=O)CC(C)(C)C(F)(F)F)nc3c(OC(F)F)cc(C#N)cc32)CCC1 [Example 419, N-(6-cyano-4-(difluoromethoxy)-1-(1-methylcyclobutyl)-1H-benzo[d]imidazol-2-yl)-4,4,4-trifluoro-3,3-dimethylbutanamide]	+ (1.2-2.9 (+))
CC(C)(C)CC(=O)Nc1nc2ccc(OC(F)F)cc2n1C(C)(C)C [Example 393, N-(1-(tert-butyl)-6-(difluoromethoxy)-1H-benzo[d]imidazol-2-yl)-3,3-dimethylbutanamide]	+++ (>4 (+++) fold increase over baseline)
CC(C)(CC(=O)Nc1nc2cccc(C#N)c2n1C1(C)CCC1)C1CC1 [Example 426, N-(7-cyano-1-(1-methylcyclobutyl)-1H-benzo[d]imidazol-2-yl)-3-cyclopropyl-3-methylbutanamide]	+++ (>4 (+++) fold increase over baseline)
CC(C)(C)CC(=O)Nc1nc2ccc(N3CC(F)(F)C3)c(F)c2n1C1CCC1 [Example 475, N-(1-cyclobutyl-6-(3,3-difluoroazetidin-1-yl)-7-fluoro-1H-benzo[d]imidazol-2-yl)-3,3-dimethylbutanamide]	++ (3-3.9 (++))
C[C@H](C(=O)Nc1nc2ccc(C(C)(C)O)cc2n1C12CC(C1)C2)C(C)(C)C [Example 455, (S)-N-(1-(bicyclo[1.1.1]pentan-1-yl)-6-(2-hydroxypropan-2-yl)-1H-benzo[d]imidazol-2-yl)-2,3,3-trimethylbutanamide]	++ (3-3.9 (++))
COc1cc(Br)cc2c1nc(NC(=O)CC(C)(C)C)n2C1(C)CCC1 [Example 392, N-(6-bromo-4-methoxy-1-(1-methylcyclobutyl)-1H-benzo[d]imidazol-2-yl)-3,3-dimethylbutanamide]	+++ (>4 (+++) fold increase over baseline)
